This passage reports IC50 and GI50 results from ChEMBL document CHEMBL5126512, “Current status of carbazole hybrids as anticancer agents” (Eur J Med Chem, 2022).

What is called IC50 is the midpoint of a concentration-inhibition curve. As usually defined, the GI50 is the concentration at which growth is held to half of that of the control.

The subject of data set [1] is MCF7. In words: Antiproliferative activity against human MCF7 cells assessed as cell growth inhibition measured after 48 hrs by SRB assay. The format is functional, cell-based. To be noted: for GI50: MCF7, time 48 hrs. A general note: In SRB staining, fixed cells bind dye roughly in proportion to their protein.
The test system of a further data set is HOP-62. In words: Antiproliferative activity against human HOP-62 cells assessed as cell growth inhibition measured after 48 hrs by SRB assay. The format is functional, cell-based. To be noted: HOP-62, 48 h.
A further data set deals with SW-620. Kind of data set: Antiproliferative activity against human SW-620 cells assessed as cell growth inhibition measured after 48 hrs by SRB assay. The format is functional, cell-based. Conditions: SW-620, 48 h.
The next data set deals with OVCAR-3. In words: Antiproliferative activity against human OVCAR-3 cells assessed as cell growth inhibition measured after 48 hrs by SRB assay. Conditions: OVCAR-3, 48 h. It counts as functional, cell-based.
A further data set has as its system OVCAR-4. In words: Antiproliferative activity against human OVCAR-4 cells assessed as cell growth inhibition measured after 48 hrs by SRB assay. Conditions: OVCAR-4, 48 h. It counts as functional, cell-based.
The next data set relates to 786-0. In words: Antiproliferative activity against human 786-0 cells assessed as cell growth inhibition measured after 48 hrs by SRB assay. It counts as functional, cell-based. Conditions: 786-0, 48 h.
In another data set the test system is UO-31. Kind of data set: Antiproliferative activity against human UO-31 cells assessed as cell growth inhibition measured after 48 hrs by SRB assay. To be noted: UO-31, 48 h. It counts as functional, cell-based.
The test system of data set [2] is MDA-MB-231. Kind of data set: Antiproliferative activity against human MDA-MB-231 cells assessed as cell growth inhibition measured after 48 hrs by SRB assay. The format is functional, cell-based. Conditions: for GI50: MDA-MB-231, time 48 hrs.
The subject of the next data set is Hs-578T. Kind of data set: Antiproliferative activity against human Hs-578T cells assessed as cell growth inhibition measured after 48 hrs by SRB assay. The format is functional, cell-based.
The next data set has as its system SNB-75. In words: Antiproliferative activity against human SNB-75 cells assessed as cell growth inhibition measured after 48 hrs by SRB assay. Conditions: SNB-75, 48 h. It counts as functional, cell-based.
The subject of data set [3] is HCT-116. Kind of data set: Cytotoxicity against human HCT-116 cells assessed as cell growth inhibition measured after 48 hrs by MTT assay. It counts as functional, cell-based. To be noted: HCT-116, 48 h.
Data set [4] concerns HepG2. Kind of data set: Cytotoxicity against human HepG2 cells assessed as cell growth inhibition measured after 48 hrs by MTT assay. The format is functional, cell-based. To be noted: HepG2, 48 h.
The test system of data set [5] is MCF7. In words: Cytotoxicity against human MCF7 cells assessed as cell growth inhibition measured after 48 hrs by MTT assay. The format is functional, cell-based. Conditions: MCF7, 48 h.
The nature of data set [6]: Cytotoxicity against human A875 cells assessed as cell growth inhibition measured after 72 hrs by MTT assay. It counts as functional, cell-based. To be noted: A875, 72 h.
In data set [7] the test system is HepG2. In words: Cytotoxicity against human HepG2 cells assessed as cell growth inhibition measured after 72 hrs by MTT assay. The format is functional, cell-based. To be noted: HepG2, 72 h. In general terms: Formazan colour is commonly taken as a measure of viable cells.
A short description of data set [8]: Cytotoxicity against green monkey MARC145 cells assessed as cell growth inhibition measured after 72 hrs by MTT assay. The format is toxicity, cell-based, Chlorocebus aethiops.
The test system of data set [9] is HeLa. Kind of data set: Antiproliferative activity against human HeLa cells assessed as cell growth inhibition by MTT assay. It counts as functional, cell-based.
The test system of data set [10] is MDA-MB-231. In words: Antiproliferative activity against human MDA-MB-231 cells assessed as cell growth inhibition by MTT assay. The format is functional, cell-based.
Data set [11] in a line: Cytotoxicity against human RPE-1 cells assessed as cell growth inhibition measured after 48 hrs by MTT assay. It counts as toxicity, cell-based. To be noted: RPE-1 (TERT-RPE1) cells.
The subject of data set [12] is A549. In words: Antiproliferative activity against human A549 cells assessed as cell growth inhibition measured after 72 hrs by MTT assay. The format is functional, cell-based. Conditions: A549, 72 h.
In data set [13] the test system is HCT-116. Kind of data set: Antiproliferative activity against human HCT-116 cells assessed as cell growth inhibition measured after 72 hrs by MTT assay. It counts as functional, cell-based. Conditions: HCT-116, 72 h.
For data set [14], the system named is MDA-MB-231. In words: Antiproliferative activity against human MDA-MB-231 cells assessed as cell growth inhibition measured after 72 hrs by MTT assay. The format is functional, cell-based. Conditions: MDA-MB-231, 72 h.
For data set [15], the system named is MCF7. Kind of data set: Antiproliferative activity against human MCF7 cells assessed as cell growth inhibition by MTT assay. It counts as functional, cell-based.
The test system of a further data set is COLO 205. In words: Antiproliferative activity against human COLO 205 cells assessed as cell growth inhibition by MTT assay. It counts as functional, cell-based.
Data set [16] relates to A549. In words: Antiproliferative activity against human A549 cells assessed as cell growth inhibition by MTT assay. It counts as functional, cell-based.
Data set [17] has as its system A549. In words: Cytotoxicity against human A549 cells assessed as cell growth inhibition measured after 24 hrs by MTT assay. The format is functional, cell-based. To be noted: A549, 24 h, pooled result: one value given for 4 cell lines, strains, targets or settings.
The next data set relates to K562. Kind of data set: Antiproliferative activity against human K562 cells assessed as cell growth inhibition by MTT assay. It counts as functional, cell-based.
Data set [18] deals with HCT-116. Kind of data set: Antiproliferative activity against human HCT-116 cells assessed as cell growth inhibition by MTT assay. The format is functional, cell-based.
The next data set concerns SK-OV-3. In words: Antiproliferative activity against human SK-OV-3 cells assessed as cell growth inhibition by MTT assay. It counts as functional, cell-based.
In data set [19] the test system is HeLa. In words: Cytotoxicity against human HeLa cells assessed as cell growth inhibition by MTT assay. It counts as functional, cell-based.
Data set [20] concerns MCF7. Kind of data set: Cytotoxicity against human MCF7 cells assessed as cell growth inhibition by MTT assay. It counts as functional, cell-based.
In a further data set the test system is HEp-2. Kind of data set: Cytotoxicity against human HEp-2 cells assessed as cell growth inhibition by MTT assay. The format is functional, cell-based.

Consider `Cc1c2ccncc2c(/C=C/C(C)NC=O)c2c1[nH]c1ccccc12` (stereo not given), for which the IC50 in the data set on MCF7 [1] (MCF7, 48 h) was determined as 1.25 µM; in the data set on HOP-62, 1.25 µM; in the data set on SW-620, 1.25 µM; in the data set with OVCAR-3, 1.25 µM; with OVCAR-4 it was 1.25 µM; in the data set with 786-0 it was 1.25 µM. The concentration for half-maximal inhibition (IC50) is 1.25 µM with UO-31; 1.25 µM with MDA-MB-231 [2] (MDA-MB-231, 48 h); 1.25 µM in the data set with Hs-578T; 1.25 µM in the data set with SNB-75.
Consider `COc1ccc(C(NNC(=O)Cn2c3ccccc3c3ccccc32)N2CCNCC2)cc1` (stereo not given), for which the concentration for 50% growth inhibition (GI50) in the data set with MCF7 [1] and with MDA-MB-231 [2] was less than 10 µM each time.
In the case of `CCn1c2ccccc2c2cc(NC(=O)c3cc4cc(Br)cc(Br)c4oc3=O)ccc21`, the IC50 in the data set with HCT-116 [3], in the data set on HepG2 [4] and with MCF7 [5] was 0.9 µM each time.
For the compound `Cc1c(C(=O)NCCc2c[nH]c3ccccc23)ccc2c1[nH]c1ccccc12`, the IC50 (in data set [6]; with HepG2 [7]) was 20 µM each time. Further, the IC50 at 72 h in data set [8] worked out at 20 µM.
As for `Oc1c(C(c2ccc(C(F)(F)F)cc2)N2CCCC2)ccc2[nH]c3ccccc3c12` (stereo not given), the concentration for half-maximal inhibition (IC50) in the data set on HeLa [9] and in the data set with MDA-MB-231 [10] was 5.4 µM throughout.
With `CCn1c2ccccc2c2cc(NC(=O)c3c(N)n[nH]c3Nc3ccc(Cl)cc3)ccc21`, the IC50 in the data set on HCT-116 [3], with HepG2 [4] and with MCF7 [5] was 2.97 µM each time. Moreover, the IC50 at 48 h in data set [11] was more than 100 µM.
As to `CC1CCCCN1CC(O)Cn1c2ccc(Cl)cc2c2cc(Cl)ccc21` (stereo not given), the 50% inhibitory concentration (IC50) in the data set on A549 [12], in the data set on HCT-116 [13] and in the data set with MDA-MB-231 [14] was 7.1 µM each time.
With `COc1ccc2[nH]c3c(C)cc(-c4cc(-c5ccc(C(F)(F)F)cc5F)nc(N)n4)c(C)c3c2c1`, the half-maximal inhibitory concentration (IC50) in the data set on MCF7 [15], with COLO 205 and with A549 [16] was 0.1 µM in each case.
For the compound `COc1cc(-c2cc(COc3c(OC)cc(-c4cc(-c5ccc6c(c5)c5ccccc5n6-c5nc(-c6ccc(Cl)cc6)ns5)on4)cc3OC)on2)cc(OC)c1OC`, in the data set on A549 [17], the IC50 amounted to 0.021 µM.
In the case of `O=Cc1c[nH]c2c1ccc1c3ccccc3n(CCCC(=O)NCCn3ccn4c5ccc(C(F)(F)F)cc5cc34)c12`, the IC50 with K562, with HCT-116 [18], in the data set on MCF7 [15], with MDA-MB-231 [10] and in the data set with SK-OV-3 was 9 µM in each case.
Take `OC(CN1CCCCC1)Cn1c2ccc(Cl)cc2c2cc(Cl)ccc21` (stereo not given): the half-inhibitory concentration (IC50) in the data set with A549 [12], in the data set with HCT-116 [13] and in the data set with MDA-MB-231 [14] was 7.1 µM in each case.
Turning to `CC1CCN(CC(O)Cn2c3ccc(Cl)cc3c3cc(Cl)ccc32)CC1` (stereo not given), the half-inhibitory concentration (IC50) with A549 [12], in the data set on HCT-116 [13] and in the data set on MDA-MB-231 [14] was 7.1 µM in each case.
On to `O=C1c2ccsc2N=C2c3[nH]c4ccc(Br)cc4c3CCC12` (stereo not given), for which the concentration for half-maximal inhibition (IC50) in the data set with HeLa [19], in the data set on MCF7 [20] and with HEp-2 was 5.75 µM each time.
Regarding `O=C(Cn1c2ccccc2c2ccccc21)NNC(c1ccc([N+](=O)[O-])cc1)N1CCNCC1` (stereo not given), the GI50 in the data set with MCF7 [1] and in the data set on MDA-MB-231 [2] was less than 10 µM each time.
For `O=C(Cn1c2ccccc2c2ccccc21)NNC(c1ccc(O)cc1)N1CCNCC1` (stereo not given), the concentration for 50% growth inhibition (GI50) in the data set with MCF7 [1] and in the data set with MDA-MB-231 [2] was less than 10 µM throughout.
Consider `O=C1c2ccsc2N=C2c3[nH]c4ccc(Cl)cc4c3CCC12` (stereo not given), for which the half-maximal inhibitory concentration (IC50) in the data set on HeLa [19], in the data set with MCF7 [20] and in the data set with HEp-2 was 3.6 µM in each case.
Take `COc1ccc2[nH]c3c(C)cc(-c4cc(-c5ccc(C(F)(F)F)cc5)nc(N)n4)c(C)c3c2c1`: the IC50 with MCF7 [15], in the data set with COLO 205 and with A549 [16] was 0.1 µM throughout.
